Experimental data published in US9579322B2, “Methods for treating neurologic disorders” (EIP Pharma, LLC, priority 2014, dated 2017).

What was measured:
amyloid plaque load = assay: 2-week pilot study in aged Tg2576 mice; assay type: in vivo; conditions: 26 month old Tg2576 mice, 2 weeks, versus control animals
[1] = system: IL-1β signaling and IL-1β production; assay: Inhibition of IL-1beta signaling versus IL-1beta production; assay type: cell-based, human; conditions: for potency for inhibition of cytokine (IL-1beta) signaling relative to inhibition of cytokine production: signaling versus production
[2] = system: cognitive defects in aged rats; assay: Morris water maze in aged rats; assay type: in vivo, Fischer rats
Procedure: Altogether 60 female aged (20-24 months) and 15 young adult female Fischer Rats (2-3 months) were used for the experiment. Rats were treated with oral gavage twice-a-day until the sampling (23 days) with vehicle or VX-745 0.5, 1.5 or 4.5 mg/kg. Learning and memory deficits were analyzed with Morris water maze (MWM) one week after starting the treatment.
All animal experiments were carried out according to the National Institute of Health (NIH) guidelines for the care and use of laboratory animals, and approved by the National Animal Experiment Board, Finland. Altogether 60 female aged (20-24 months) and 15 young (2-3 months) adult female Fischer rats (Charles River, France) were used for the experiment. Animals were housed at a standard temperature (22±1° C.) and in a light-controlled environment (lights on from 7 am to 8 pm) with ad libitum access to food and water. Animals were grouped as follows: • Group 1: 15 Aged Rats treated with Vehicle p.o. BID • Group 2: 15 Aged Rats treated with VX-745 (0.5 mg/kg) p.o. BID • Group 3: 15 Aged Rats treated with VX-745 (1.5 mg/kg) p.o. BID • Group 4: 15 Aged Rats treated with VX-745 (4.5 mg/kg) p.o. BID • Group 5: 15 Young adult control rats treated with Vehicle p.o. BID Drug Delivery and Rat Identification
The rats were assigned to the treatment groups equally based on their body weight and visible platform pre-training performance to ensure that both good and poor learners were equally present in all treatment groups. The treatment was given by oral gavage twice-a-day until the sampling. Vehicle was 1% Pluronic F108 and dosing volume was 5 ml/kg. Administration of vehicles and test compounds was done at 7-9 am and 3-5 pm on the pre-testing phase. On the days of behavioral testing, the treatment was given minimum 1 hour prior to first test trial. Test compounds were formulated and stored according to the instructions provided by the sponsor. The rats were marked accordingly with permanent marker to the tail. Records were kept about treatment groups and daily treatment times.
Water maze task was originally designed by Morris et al. (J Neurosci Methods. 1984; 11: 194 47-60). Testing was performed in a large dark-colored tank (200 cm in diameter) filled with clear water at a temperature of 25.0±1.0° C. A submerged platform (square platform: 10×10 cm; 1.5 cm below water surface) was placed in the middle of the of the NW quadrant. The starting locations, which were labeled N, NE, E, SE, S, SW, W, NW, were located arbitrarily on the pool rim. The rats were lowered into the pool with their nose pointing toward the wall at one of the starting points. The release point adjacent to platform location (NW) was not used.
Before the compound treatment was started, the visible platform pre-training was performed to determine whether any non-cognitive performance impairments (e.g. visual impairments and/or swimming difficulties) were present, which might affect performance on the place or probe trials. After the visible platform pre-training was completed, the data was analyzed and the rats were assigned to the different treatment groups based on their pre-training performance. This procedure was performed to ensure that each treatment group consisted equally both good and poor performers in the cued version of the water maze task.
Acquisition training—weeks 1 (days 8-11) & 2 (days 15-18): After completion of cued trials, acquisition (place) trials were executed to determine the rat's ability to learn the spatial relationship between distant cues and the submerged escape platform which remained in the same location for all place trials. The starting points were randomized (NW is not used). The rats received four trials (15 min apart, 60 s maximum for each trial) each day for 4 days/week. Latency and path length (distance) were evaluated.
Probe trial (day 19): A single probe trial was conducted 24 hours after the last place trial to evaluate memory retention. […]

PSD95 = PSD95 ELISA of cortex and hippocampus extracts; assay type: in vivo, Fischer rats
Procedure: (§1) The primary objective of this study was to investigate whether pre-treatment with compound VX-745 alleviates cognitive defects in aged rats. Plasma concentration of VX-745 was determined with LC-MS/MS at the end of the study from samples collected 1 hour post dosing. In addition, protein levels of PSD95 in ventral cortex and hippocampus, and levels of IL-1β in the hippocampus were analyzed by specific ELISA assays to evaluate the potential anti-inflammatory effects of VX-745 in the brain
One hour after the last vehicle or VX-745 morning dosing, the animals (10 per dosing group) were deeply anesthetized with pentobarbital and blood samples were collected by cardiac puncture. 500 μl of blood was collected into EDTA microtubes, centrifuged, and plasma collected. The brains were perfused with heparinized saline, and the brains were collected. Right hemisphere was post-fixed by immersion in 4% PFA in 0.1 M PB for 24 h. After a brief wash with phosphate buffer, the hemisphere was cryoprotected in 30% sucrose in PB for 2-3 days, after which it was frozen on liquid nitrogen and stored at −80° C. for optional future immunohistochemical analysis. […]
Cortex and hippocampal soluble extracts were analyzed for PSD95 content using an ELISA kit (Cusabio Biotech Ltd., #CSB-EL006938RA, Lot 031154387), while the levels of Il-1β were analyzed only from hippocampus (R&D Systems, #RLB00, Lot 308544).

[3] = Plasma concentration by LC-MS/MS 1 hour post dosing; assay type: in vivo, Fischer rats
Procedure: as §1
One hour after the last vehicle or VX-745 morning dosing, the animals (10 per dosing group) were deeply anesthetized with pentobarbital and blood samples were collected by cardiac puncture. 500 μl of blood was collected into EDTA microtubes, centrifuged, and plasma collected. The brains were perfused with heparinized saline, and the brains were collected. Right hemisphere was post-fixed by immersion in 4% PFA in 0.1 M PB for 24 h. After a brief wash with phosphate buffer, the hemisphere was cryoprotected in 30% sucrose in PB for 2-3 days, after which it was frozen on liquid nitrogen and stored at −80° C. for optional future immunohistochemical analysis. Left hemisphere was dissected to ventral and dorsal cortex, hippocampus and remaining brain fraction and fresh frozen on dry ice.
Plasma samples were processed using acetonitrile precipitation and then analyzed for VX745 drug concentration by LC-MS/MS

[4] = system: cytokine (IL-1β or TNFα) production in whole blood; conditions: inhibition of cytokine production (anti-inflammatory activity); cited from earlier work
knee degeneration = conditions: rats, 50 mg/kg, compared to control animals; cited from earlier work
hyperalgesic response = conditions: cited from earlier work
[5] = cited from earlier work
[6] = animals; cited from earlier work

In the case of VX-745, the amyloid plaque load (amyloid plaque load) is reported as “lower amyloid plaque load than control animals”, the “IC50 for inhibition of IL-1β signaling relative to IC50 for inhibition of IL-1β production” value ([1]; human systems, prior, previously undisclosed studies) is reported as “approximately half” and the “potency for inhibition of cytokine (IL-1beta) signaling relative to inhibition of cytokine production” value [1] is reported as “approximately twice”. For the same substance, the “potency for inhibition of cytokine (IL-1beta) signaling relative to inhibition of cytokine production” value ([1]; listed as VX745) was “two-fold higher”, the “MWM distance at day 17” value ([2]; 1.5 mg/kg p.o. BID versus vehicle-treated aged rats, p=0.0.019) was “statistically significant better performance” and the “MWM change in latency from first test day to last test day” value ([2]; 1.5 mg/kg p.o. BID versus vehicle-treated aged rats, p=0.007) was “performed significantly better”. The “MWM change in distance from first test day to last test day” value ([2]; 1.5 mg/kg p.o. BID versus vehicle-treated aged rats, p=0.012) was “performed significantly better”, the “MWM latency at day 17” value ([2]; 1.5 mg/kg p.o. BID versus vehicle-treated aged rats, p=0.013) was “statistically significant better performance” and the “MWM latency and distance, comparison of dose groups” value ([2]; 1.5 mg/kg p.o. BID, about equal to young vehicle-treated rats on Day 17) was “greatest effect”. For the same substance, the “MWM swim time and distance over sequential testing” value ([2]; VX-745-treated aged rats, p.o. BID) was “greater progressive shortening of swim time and distance”, the “MWM probe trial parameters (day 19)” value ([2]; time in target quadrant and annulus, platform crosses) was “no positive or negative effects” and the PSD95 protein levels (PSD95; 1.5 mg/kg) was “no evident effects”. For the same substance, the PSD95 protein levels (PSD95; 4.5 mg/kg versus aged vehicle-treated group, p=0.063 Mann-Whitney) was “statistical trend towards higher levels of PSD95”, the “plasma drug concentration relative to concentrations needed for IL-1β inhibition” value ([3]; 1.5 mg/kg) was “reached drug concentrations required for blocking IL-1β signaling” and the “plasma drug concentration relative to concentrations needed for IL-1β inhibition” value ([3]; 4.5 mg/kg) was “reached concentrations exceeding whole blood IC50 for IL-1β production”. The “plasma drug levels one hour after last dose” value ([3]; 0.5, 1.5 and 4.5 mg/kg p.o. BID, aged rats) was “increased in a dose proportional manner”, the “whole blood IC50” value [4] was 0.065 to 0.08 µg/mL and the “inhibition of knee degeneration” value (knee degeneration) was “statistically significant inhibition of knee degeneration”. The “effect on hyperalgesia at the 3 mg/kg dose” value (hyperalgesic response; 3 mg/kg) was “minimal effect”, the “inhibition of hyperalgesic response” value (hyperalgesic response; rats, 30 mg/kg, 10 mg/kg and 3 mg/kg) was “significant inhibition of hyperalgesic response” and the “blood brain barrier penetration” value ([5]; animals) was “known to penetrate the blood brain barrier (BBB)”. For the same substance, the “brain concentrations relative to plasma” value ([5]; brain versus plasma) was 1.7 times and the “neurological effects at very high doses” value [6] was “adverse neurological effects”.
